Measurements taken from the RepoRT retention time repository (doi:10.1021/acs.analchem.2c02893).

Experiment: RP, Thermo Scientific Acclaim RSLC 120 C18, 100 × 2.1 mm, 2.2 µm, 30 °C, 0.2 mL/min, estimated dead time 1.1 min; A: 90% water + 10% methanol + 0.01% formic acid + 5 mM ammonium formate, pH 3.61; B: methanol + 0.01% formic acid + 5 mM ammonium formate, pH 3.61; gradient (min/%B) 0/1 1/1 2/39 13/99.9 15/99.9 15.1/1 20.1/1
Details: stereoisomer not certain

| Structure (SMILES) | LC retention time |
| --- | --- |
| CCCc1nn(C)c2c(=O)[nH]c(-c3cc(S(=O)(=O)N4CCN(Cc5ccccc5)CC4)ccc3OCC)nc12 [Sildenafil-Benzyl] | 11.5 min |
| CCCCCn1cc(C(=O)Oc2cccc3cccnc23)c2ccccc21 [PB-22] | 11.9 min |
| CCCc1cc(OC)c(CCN)cc1OC [2 C-P] | 7.46 min |
| COc1ccc(CCN(C)CCCC(C#N)(c2cc(OC)c(OC)c(OC)c2)C(C)C)cc1OC (stereo not drawn) [Gallopamil] | 7.19 min |
| COc1cccc(C2(O)CCCCC2CN)c1 (stereo not drawn) [Tramadol-N-bisdesmethyl (dinor-tramadol)] | 5.19 min |
| CC12CCC(=O)C=C1CCC1C2CCC2(C)C1CCC2(C)O (stereo not drawn) [Testosterone- 17-alpha-methyl] | 10.4 min |
| O=C(OCC(O)CO)c1ccccc1Nc1ccnc2cc(Cl)ccc12 (stereo not drawn) [Glaphenine] | 6.63 min |
| CS(=O)(=O)c1ccc(C(=O)C2C(=O)CCCC2=O)c(Cl)c1 [Sulcotrione] | 5 min |
| O=C(CCCN1CCC(O)(c2cccc(C(F)(F)F)c2)CC1)c1ccc(F)cc1 [Trifluperidol] | 7.42 min |
| CCCCN1CCCCC1C(=O)Nc1c(C)cccc1C (stereo not drawn) [Bupivacaine] | 6.18 min |
| CNC(C)C(=O)c1ccc(Cl)cc1 (stereo not drawn) [Clephedrone (4-Chloromethcathinone)] | 4.91 min |
| CCCCCCCCOC(=O)c1ccccc1C(=O)OCCCCCCCC [Phthalate-Di-n-octyl] | 15.3 min |
| CCOC(=O)C(SP(=S)(OC)OC)c1ccccc1 (stereo not drawn) [Phenthoate] | 10.7 min |
| CN(Cc1cc(Br)cc(Br)c1N)C1CCCCC1 [Bromhexine] | 10 min |
| O=C(NC(=O)c1c(F)cccc1F)Nc1ccc(OC(F)(F)C(F)OC(F)(F)F)c(Cl)c1 (stereo not drawn) [Novaluron] | 11.9 min |
| CCCCOCN(C(=O)CCl)c1c(CC)cccc1CC [Butachlor] | 12.3 min |
| O=C1CCc2ccc(OCCCCN3CCN(c4cccc(Cl)c4Cl)CC3)cc2N1 [Aripiprazole] | 8.63 min |
| COC=C(C(=O)OC)c1ccccc1Oc1cc(Oc2ccccc2C#N)ncn1 [Azoxystrobin] | 9.02 min |
| CC(Cc1ccc(C(C)(C)C)cc1)CN1CCCCC1 (stereo not drawn) [Fenpropidin] | 8.62 min |
| Cc1cccc(C(=O)O)c1N(Cn1cccn1)C(=O)C(=O)O [Metazachlor BH479-12] | 4.42 min |
| CCCCNC(=O)n1c(NC(=O)OC)nc2ccccc21 [Benomyl (decomposed to Carbendazim)] | 5.46 min |

| Structure (SMILES) | LC retention time |
| --- | --- |
| Nc1ccc(S(=O)(=O)Nc2cnc3ccccc3n2)cc1 [Sulfaquinoxaline] | 5.81 min |
| CCOC(=O)C(c1ccccc1)N1CCCCC1 (stereo not drawn) [Ethylphenidate] | 5.08 min |
| Nc1cc(Cl)c(NC2=NCCN2)c(Cl)c1 [Apraclonidin] | 3.09 min |
| Clc1ccc2c(c1)C(N1CCNCC1)=Nc1ccccc1O2 [Amoxapine] | 7.64 min |
| CC1=C(C(=O)O)N2C(=O)C(NC(=O)C(N)c3ccccc3)C2SC1 (stereo not drawn) [Cefalexin] | 4.08 min |
| OC(c1ccc(Cl)cc1)(c1ccc(Cl)cc1)C(Cl)(Cl)Cl [Dicofol] | 11.8 min |
| CNC(=O)Oc1ccccc1C(C)C [Isoprocarb] | 8.12 min |
| CCCSc1cc(OC)c(CCN)cc1OC [2C-T-7] | 6.98 min |
| C[N+]1(C)C2CC(OC(=O)C(CO)c3ccccc3)CC1C1OC12 (stereo not drawn) [Scopolamine-Methyl] | 3.88 min |
| CC(C)(C)N(NC(=O)c1ccc(Cl)cc1)C(=O)c1ccccc1 [Halofenozide] | 9.25 min |
| CCCCCCn1cc(C(=O)c2cccc3ccccc23)c2ccccc21 [JWH-019] | 12.9 min |
| CCCCOCCOCCSC#N [Lethane 384] | 8.12 min |
| NCC(O)COc1ccccc1C(=O)CCc1ccccc1 (stereo not drawn) [Propafenone-N-Desmethyl] | 7.09 min |
| CCCCCn1cc(C(=O)c2ccc(OC)cc2)c2ccccc21 [RCS-4] | 11.8 min |
| CNC(=O)N(C)c1nc2ccccc2s1 [Methabenzthiazuron] | 8.26 min |
| c1ccc2c(c1)CCCC2C1=NCCN1 (stereo not drawn) [Tetryzoline] | 4.47 min |
| CN(C)C(=S)SSC(=S)N(C)C [Thiram (Tetramethylthiuramdisulfide.TMTD)] | 6.8 min |
| CC1CC2C3CC(F)C4=CC(=O)C=CC4(C)C3(F)C(O)CC2(C)C1(O)C(=O)CO (stereo not drawn) [Flumethasone] | 8.28 min |
| Cc1ccc(-c2c(Cl)nc(C#N)n2S(=O)(=O)N(C)C)cc1 [Cyazofamid] | 10.3 min |
| CCCc1nc(C)c2c(=O)[nH]c(-c3cc(S(=O)(=O)N4CCN(CCO)CC4)ccc3OCC)nn12 [Vardenafil-Hydroxy] | 8.05 min |
| CCCCCn1cc(C(=O)c2cccc3ccccc23)c2cccc(O)c21 [JWH-018-M-7-OH-Ind] | 11.8 min |

| Structure (SMILES) | LC retention time |
| --- | --- |
| COC(=O)Nc1nc2ccccc2[nH]1 [Carbendazim] | 5.46 min |
| COCCCOc1ccnc(CS(=O)c2nc3ccccc3[nH]2)c1C (stereo not drawn) [Rabeprazole] | 7.52 min |
| CCCCCCCCCCCC[N+](C)(C)[O-] [N,N-Dimethyldodecylamine N-oxide] | 11.2 min |
| CCOC(=O)CC(SP(=O)(OC)OC)C(=O)OCC (stereo not drawn) [Malaoxon] | 7.01 min |
| O=C1CN=C(c2ccccc2)c2cc([N+](=O)[O-])ccc2N1 [Nitrazepam] | 7.79 min |
| CCNC(=O)C(C)OC(=O)Nc1ccccc1 (stereo not drawn) [Carbetamide] | 6.58 min |
| CC(CCN1CCOCC1)OC(=O)C1(c2ccccc2)CCOCC1 (stereo not drawn) [Fedrilate] | 6.12 min |
| NC(N)=Nc1nc(CSCCC(N)=NS(N)(=O)=O)cs1 [Famotidine] | 3.24 min |
| CNC(C)Cc1ccc(O)c(O)c1 (stereo not drawn) [HHMA] | 2.59 min |
| CCOc1ccccc1OS(=O)(=O)NC(=O)Nc1nc(OC)cc(OC)n1 [Ethoxysulfuron] | 9.32 min |
| COc1ccccc1N1CCN(CCCC(=O)c2ccc(F)cc2)CC1 [Fluanisone] | 6.41 min |
| Clc1ccc(C(Cn2ccnc2)OCc2ccc(Sc3ccccc3)cc2)c(Cl)c1 (stereo not drawn) [Fenticonazole] | 13.4 min |
| NC(N)=NS(=O)(=O)c1ccc(N)cc1 [Sulfaguanidine] | 1.93 min |
| CCC1C2CC3C4N(C)c5ccccc5C45CC(C2C5O)[N+]3(CC(O)CN(CC)CC)C1O (stereo not drawn) [Detajmium] | 4.62 min |
| CCOP(=O)(NC(C)C)Oc1ccc(SC)c(C)c1 (stereo not drawn) [Fenamiphos] | 10.4 min |
| CN(Cc1cnc2nc(N)nc(N)c2n1)c1ccc(C(=O)NC(CCC(=O)O)C(=O)O)cc1 (stereo not drawn) [Methotrexate] | 3.96 min |
| O=S(=O)(O)c1ccc2ccccc2c1 [2-Naphthalin sulfonic acid] | 5.44 min |
| Nc1c(Cl)cc([N+](=O)[O-])cc1Cl [Dicloran] | 8.84 min |
| O=C(O)COCCN1CCN(C(c2ccccc2)c2ccc(Cl)cc2)CC1 (stereo not drawn) [Cetirizine] | 8.79 min |
| COc1ccc2[nH]c(C)c(CCN(C)C)c2c1 [MeO-TMT (5-)] | 4.19 min |
| CCCCCC(=O)c1ccc(O)cc1O [Caproylresorcinol] | 10.4 min |
